Values joined by “and” are separate entries in the source; they are usually repeats but may differ in a detail not shown here. Equal values may be shown once.
Tests used:
Type in all cases: in vivo
[1] = tested on: 6C3HED lymphosarcoma (Gardner lymphosarcoma, GLS); test: Antitumor activity in C3H mice bearing 6C3HED lymphosarcoma allograft, oral administration; settings: for Percent Inhibition of tumor growth: tumor measured five days after treatment ended
Text: A third tumor model employed C3H mice bearing the widely used allograft 6C3HED lymphosarcoma, also known as the Gardner lymphosarcoma (GLS). The 6C3HED lymphosarcoma was obtained from the Division of Cancer Treatment, National Cancer Institute, Tumor Bank, maintained at E.G. and G. Mason Research (Worcester, Mass.).
(§1) First passage tumors were stored in liquid nitrogen, using standard techniques. The transplanted tumor was reestablished from the Tumor Bank every six months or as needed. The tumor was maintained by serial passage twice weekly in the host mice.
(§2) In the procedures utilized here, the tumor was removed from passage animals and minced into 1- to 3-mm cubic fragments using sterile techniques. Tumor pieces were checked for sterility using both Antibiotic Medium 1 and Brain Heart Infusion (Difco, Detroit, Mich.). The xenograft tumor pieces were implanted into the recipient CD1 Nu/Nu mice subcutaneously in an axillary site by trochar. The allograft 6C3HED tumor pieces were implanted into the recipient C3H mice in an analogous fashion.
Drug therapy on the appropriate schedule was initiated seven days after tumor implantation. […] The total dosage volume for each administration was 0.5 ml. All animals were weighed at the beginning and end of administration of the subject compounds. Food and water were provided ad libitum.
(§3) Each control group and each dosage level of the treated groups consisted of 9 or 10 mice selected at random from the pool of implanted animals. The formulations were administered orally by gavage with the use of an 18-gauge needle. Compounds were dosed daily for 10 days for the studies using the human tumor xenografts and 8 days for the studies using the allograft.
The tumor was measured five days after treatment ended with two dimensional measurements (width and length) of the tumor taken using digital electronic calipers interfaced to a microcomputer. […] Tumor weights were calculated from these measurements using the following formula: [formula]

[2] = tested on: VRC5 human colon adenocarcinoma; test: Antitumor activity in mice bearing VRC5 human colon adenocarcinoma xenograft, oral administration; settings: for Toxic/Total (mice which died relative to total in group): VRC5, oral gavage daily for 10 days; for Percent Inhibition of tumor growth: po
Text: (§4) Two of the tumor models used for showing the anti-neoplastic activity of the sulfonylureas of this invention were the human colon xenografts, HXGC3 and VRC5. J. A. Houghton and D. M. Taylor, British Journal of Cancer, 37:213-223 (1978). These tumors were obtained from St. Jude's Children's Research Hospital and have been widely used as human tumor models.
as §1, §2
(§5) Drug therapy on the appropriate schedule was initiated seven days after tumor implantation. The compound being tested was mixed with 2.5% Emulphor EL620 from GAF Corporation (1:40 dilution in 0.9% saline). The total dosage volume for each administration was 0.5 ml. All animals were weighed at the beginning and end of administration of the subject compounds. Food and water were provided ad libitum.
as §3
(§6) The tumor was measured five days after treatment ended with two dimensional measurements (width and length) of the tumor taken using digital electronic calipers interfaced to a microcomputer. J. F. Worzalla, et Investigational New Drugs, 8:241-251 (1990). Tumor weights were calculated from these measurements using the following formula: [formula] At least one control group of an equal number of mice was treated with the same volume of 2.5% Emulphor only. The percent inhibition is determined by subtracting the ratio of the mean tumor size of the test group relative to the control group from one and multiplying the result by 100.
(§7) The results of several experiments in mice bearing the HXGC3 and VRC5 human colon adenocarcinomas and the 6C3HED lymphosarcoma when the Formula I compounds were administered orally are provided in Table I. In the table, Column 1 refers to the example number of the compound tested; Column 2 describes the particular human tumor xenograft or mouse allograft being studied; Column 3 gives the dosage level of the compound of Formula I in milligrams per kilogram of body weight; Column 4 describes the percent inhibition of tumor growth; and Column 5 tallies the number of mice which died during the course of the experiment relative to the total number of animals in the group.

[3] = tested on: HXGC3 human colon adenocarcinoma; test: Antitumor activity in mice bearing HXGC3 human colon adenocarcinoma xenograft, oral administration; settings: for Toxic/Total (mice which died relative to total in group): HXGC3, oral gavage daily for 10 days; for Percent Inhibition of tumor growth: po
Text: as §4, §1, §2, §5, §3, §6, §7

[4] = 6C3HED, 150 mg/kg, oral gavage daily for 8 days
[5] = 6C3HED, 300 mg/kg, oral gavage daily for 8 days
[6] = 6C3HED, 600 mg/kg, oral gavage daily for 8 days
[7] = Mus musculus, 6C3HED, po, read-out: Percent Inhibition of tumor growth

SMILES: CN(C)c1ccc(S(=O)(=O)NC(=O)Nc2ccc(Cl)cc2)cc1 [Example 1, N-[[(4-chlorophenyl)amino]carbonyl]-4-(dimethylamino)benzenesulfonamide]
- Toxic/Total (mice which died relative to total in group) ([1]; 6C3HED, 37.5 mg/kg, oral gavage daily for 8 days): 0/10
- Toxic/Total (mice which died relative to total in group) ([1]; 6C3HED, 75 mg/kg, oral gavage daily for 8 days): 0/10
- Toxic/Total (mice which died relative to total in group) [1, 4]: 0/10
- Toxic/Total (mice which died relative to total in group) [1, 5]: 0/10
- Toxic/Total (mice which died relative to total in group) [1, 6]: 10/10
- Percent Inhibition of tumor growth [1, 6]: Toxic
- inhibition in vivo at 37.5 mg/kg [1, 7]: 80%
- inhibition in vivo at 75 mg/kg [1, 7]: 99%
- inhibition in vivo at 150 mg/kg [1, 7]: 100%
- inhibition in vivo at 300 mg/kg [1, 7]: 100%

SMILES: CN(C)c1ccc(S(=O)(=O)NC(=O)Nc2ccc(Cl)c(Cl)c2)cc1 [Example 2, N-[[(3,4-dichlorophenyl)amino]carbonyl]-4-(dimethylamino)benzenesulfonamide]
- Toxic/Total (mice which died relative to total in group) ([2]; 150 mg/kg): 0/10
- Toxic/Total (mice which died relative to total in group) ([2]; 300 mg/kg): 0/10
- Toxic/Total (mice which died relative to total in group) ([2]; 600 mg/kg): 1/10
- Toxic/Total (mice which died relative to total in group) ([2]; 1200 mg/kg): 0/10
- Percent Inhibition of tumor growth ([2]; 150 mg/kg): 100%
- Percent Inhibition of tumor growth ([2]; 300 mg/kg): 100%
- Percent Inhibition of tumor growth ([2]; 600 mg/kg): 100%
- Percent Inhibition of tumor growth ([2]; 1200 mg/kg): 100%
- Toxic/Total (mice which died relative to total in group) ([3]; 150 mg/kg): 0/10
- Toxic/Total (mice which died relative to total in group) ([3]; 300 mg/kg): 0/10
- Toxic/Total (mice which died relative to total in group) ([3]; 600 mg/kg): 1/10
- Toxic/Total (mice which died relative to total in group) ([3]; 1200 mg/kg): 1/10
- Percent Inhibition of tumor growth ([3]; 150 mg/kg): 100%
- Percent Inhibition of tumor growth ([3]; 300 mg/kg): 100%
- Percent Inhibition of tumor growth ([3]; 600 mg/kg): 100%
- Percent Inhibition of tumor growth ([3]; 1200 mg/kg): 100%
- Toxic/Total (mice which died relative to total in group) ([1]; 6C3HED, 20 mg/kg, oral gavage daily for 8 days): 0/10
- Toxic/Total (mice which died relative to total in group) ([1]; 6C3HED, 40 mg/kg, oral gavage daily for 8 days): 0/10
- Toxic/Total (mice which died relative to total in group) ([1]; 6C3HED, 80 mg/kg, oral gavage daily for 8 days): 0/10
- Toxic/Total (mice which died relative to total in group) ([1]; 6C3HED, 160 mg/kg, oral gavage daily for 8 days): 0/10
- inhibition in vivo at 20 mg/kg [1, 7]: 35%
- inhibition in vivo at 40 mg/kg [1, 7]: 51%
- inhibition in vivo at 80 mg/kg [1, 7]: 89%
- inhibition in vivo at 160 mg/kg [1, 7]: 97%

SMILES: CN(C)c1cccc(S(=O)(=O)NC(=O)Nc2ccc(Cl)cc2)c1 [Example 4, N-[[(4-chlorophenyl)amino]carbonyl]-3-(dimethylamino)benzenesulfonamide]
- Toxic/Total (mice which died relative to total in group) [1, 4]: 0/10
- Toxic/Total (mice which died relative to total in group) [1, 5]: 0/10
- inhibition in vivo at 150 mg/kg [1, 7]: 73%
- inhibition in vivo at 300 mg/kg [1, 7]: 95%

SMILES: CCNc1ccc(S(=O)(=O)NC(=O)Nc2ccc(Cl)cc2)cc1 [Example 5, N-[[(4-chlorophenyl)amino]carbonyl]-4-(ethylamino)benzenesulfonamide]
- Toxic/Total (mice which died relative to total in group) [1, 5]: 0/10
- inhibition in vivo at 300 mg/kg [1, 7]: 74%

SMILES: O=C(Nc1ccc(Cl)cc1)NS(=O)(=O)c1ccc(N2CCOCC2)cc1 [Example 6, N-[[(4-chlorophenyl)amino]-carbonyl]-4-(4-morpholinyl) benzenesulfonamide]
- Toxic/Total (mice which died relative to total in group) [1, 4]: 0/10
- Toxic/Total (mice which died relative to total in group) [1, 5]: 0/10
- inhibition in vivo at 150 mg/kg [1, 7]: 17%
- inhibition in vivo at 300 mg/kg [1, 7]: 38%

SMILES: O=C(Nc1ccc(Cl)cc1)NS(=O)(=O)c1ccc(N2CCCC2)cc1 [Example 7, N-[[(4-chlorophenyl)amino]-carbonyl]-4-(1-pyrrolidinyl) benzenesulfonamide]
- Toxic/Total (mice which died relative to total in group) [1, 4]: 0/10
- Toxic/Total (mice which died relative to total in group) [1, 5]: 0/10
- inhibition in vivo at 150 mg/kg [1, 7]: 44%
- inhibition in vivo at 300 mg/kg [1, 7]: 48%

SMILES: Nc1ccc(S(=O)(=O)NC(=O)Nc2ccc(Cl)c(Cl)c2)cc1 [Example 8, N-[[(3,4-dichlorophenyl)amino]-carbonyl]-4-(amino) benzenesulfonamide]
- inhibition in vivo at 194 mg/kg [1, 7]: 34%
- inhibition in vivo at 388 mg/kg [1, 7]: 29%
- inhibition in vivo at 775 mg/kg [1, 7]: 100%
- Toxic/Total (mice which died relative to total in group) ([1]; mouse, in vivo): 1/10 and 0/10

SMILES: CNc1ccc(S(=O)(=O)NC(=O)Nc2ccc(Cl)cc2)cc1 [Example 9]
- Toxic/Total (mice which died relative to total in group) [1, 5]: 0/10
- Percent Inhibition of tumor growth [1, 5]: 100%
- Toxic/Total (mice which died relative to total in group) [1, 6]: 0/10
- Percent Inhibition of tumor growth [1, 6]: 100%

SMILES: CNc1ccc(S(=O)(=O)NC(=O)Nc2ccc(Cl)c(Cl)c2)cc1 [Example 10]
- inhibition in vivo at 300 mg/kg [1, 7]: 100%
- inhibition in vivo at 600 mg/kg [1, 7]: 100%
- Toxic/Total (mice which died relative to total in group) ([1]; mouse, in vivo): 2/10 and 0/10

SMILES: CC(C)Nc1ccc(S(=O)(=O)NC(=O)Nc2ccc(Cl)c(Cl)c2)cc1 [Example 11]
- Toxic/Total (mice which died relative to total in group) [1, 4]: 0/10
- Percent Inhibition of tumor growth [1, 4]: 71%
- Toxic/Total (mice which died relative to total in group) [1, 5]: 1/10
- Percent Inhibition of tumor growth [1, 5]: 96%

SMILES: CCN(CC)c1ccc(S(=O)(=O)NC(=O)Nc2ccc(Cl)c(Cl)c2)cc1 [Example 12]
- Toxic/Total (mice which died relative to total in group) [1, 4]: 0/10
- Toxic/Total (mice which died relative to total in group) [1, 5]: 0/10
- inhibition in vivo at 150 mg/kg [1, 7]: 54%
- inhibition in vivo at 300 mg/kg [1, 7]: 70%

Reference: US5565494A, “Antitumor compositions and methods of treatment” (Eli Lilly and Company, priority 1995, dated 1996)
